Experimental data taken from patent publication US20230092890A1, “1, 3, 4-Oxadiazole derivative compounds as histone deacetylase 6 inhibitor, and the pharmaceutical composition comprising the same” (Chong Kun Dang Pharmaceutical Corp., priority 2019, published 2023).

Tests used:
[1] = target: T1, HDAC1 (Homo sapiens, UniProt Q13547); assay: HDAC enzyme activity inhibition (in vitro), HDAC1 Fluorimetric Drug Discovery Assay Kit; format: biochemical; details: samples at 100, 1000 and 10000 nM; 37° C. 60 minutes; fluorescence Ex 390, Em 460; read-out: HDAC1 IC50
T1 construct: purchased Enzolifesciences BML-AK511
Outline: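 Fluorimetric read-out (Ex 390, Em 460) after a 60 min 37° C enzyme reaction and 30 min 37° C developer step. Tested levels: 0.1-1000 nM (0.1, 1, 10, 100, 1000) on recombinant human HDAC6; 100, 1000 and 10000 nM on HDAC1 kit enzyme.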

[2] = target: T2, HDAC6 human recombinant (Homo sapiens, UniProt Q9UBN7); assay: HDAC enzyme activity inhibition (in vitro), HDAC6 assay; format: biochemical; details: samples at 0.1, 1, 10, 100 and 1000 nM; 37° C. 60 minutes; fluorescence Ex 390, Em 460; read-out: HDAC6 IC50
T2 construct: purchased Calbiochem 382180
T2 sequence (Q9UBN7 1-1215): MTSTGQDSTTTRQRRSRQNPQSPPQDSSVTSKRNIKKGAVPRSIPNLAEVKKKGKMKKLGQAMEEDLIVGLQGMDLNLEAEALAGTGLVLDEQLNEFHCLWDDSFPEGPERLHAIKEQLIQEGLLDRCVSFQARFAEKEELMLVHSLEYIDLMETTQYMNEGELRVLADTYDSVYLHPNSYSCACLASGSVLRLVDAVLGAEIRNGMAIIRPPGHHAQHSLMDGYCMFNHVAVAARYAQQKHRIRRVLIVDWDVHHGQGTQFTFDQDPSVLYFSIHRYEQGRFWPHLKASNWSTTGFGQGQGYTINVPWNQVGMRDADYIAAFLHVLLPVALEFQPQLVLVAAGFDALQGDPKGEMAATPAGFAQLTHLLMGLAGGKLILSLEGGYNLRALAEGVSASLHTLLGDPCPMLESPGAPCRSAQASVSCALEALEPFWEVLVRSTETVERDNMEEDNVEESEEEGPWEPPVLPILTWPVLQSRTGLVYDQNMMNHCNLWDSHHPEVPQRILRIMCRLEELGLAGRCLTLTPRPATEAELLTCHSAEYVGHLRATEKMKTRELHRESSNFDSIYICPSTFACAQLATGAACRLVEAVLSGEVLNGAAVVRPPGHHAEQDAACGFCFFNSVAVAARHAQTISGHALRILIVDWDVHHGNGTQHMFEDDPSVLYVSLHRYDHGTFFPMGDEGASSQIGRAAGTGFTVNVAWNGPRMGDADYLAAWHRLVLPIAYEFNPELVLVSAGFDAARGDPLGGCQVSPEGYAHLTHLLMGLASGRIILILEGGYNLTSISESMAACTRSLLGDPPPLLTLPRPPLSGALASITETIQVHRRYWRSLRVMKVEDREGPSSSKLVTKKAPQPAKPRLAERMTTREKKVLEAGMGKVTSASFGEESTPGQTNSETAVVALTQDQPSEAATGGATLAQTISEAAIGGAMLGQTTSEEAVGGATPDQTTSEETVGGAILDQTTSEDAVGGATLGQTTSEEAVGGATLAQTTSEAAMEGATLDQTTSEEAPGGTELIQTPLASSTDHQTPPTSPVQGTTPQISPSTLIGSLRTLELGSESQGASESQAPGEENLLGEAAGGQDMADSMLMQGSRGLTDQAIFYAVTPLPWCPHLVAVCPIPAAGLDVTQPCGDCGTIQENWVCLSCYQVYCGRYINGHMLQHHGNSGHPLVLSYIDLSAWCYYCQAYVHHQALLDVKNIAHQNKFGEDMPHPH
Outline: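 Fluorescence (Ex 390, Em 460) read after a 37° C, 60 min enzyme reaction and a further 30 min developer step at 37° C. Uses recombinant human HDAC6; HDAC1 arm dosed at 100, 1000, 10000 nM.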

T1 sequence (Q13547 whole entry): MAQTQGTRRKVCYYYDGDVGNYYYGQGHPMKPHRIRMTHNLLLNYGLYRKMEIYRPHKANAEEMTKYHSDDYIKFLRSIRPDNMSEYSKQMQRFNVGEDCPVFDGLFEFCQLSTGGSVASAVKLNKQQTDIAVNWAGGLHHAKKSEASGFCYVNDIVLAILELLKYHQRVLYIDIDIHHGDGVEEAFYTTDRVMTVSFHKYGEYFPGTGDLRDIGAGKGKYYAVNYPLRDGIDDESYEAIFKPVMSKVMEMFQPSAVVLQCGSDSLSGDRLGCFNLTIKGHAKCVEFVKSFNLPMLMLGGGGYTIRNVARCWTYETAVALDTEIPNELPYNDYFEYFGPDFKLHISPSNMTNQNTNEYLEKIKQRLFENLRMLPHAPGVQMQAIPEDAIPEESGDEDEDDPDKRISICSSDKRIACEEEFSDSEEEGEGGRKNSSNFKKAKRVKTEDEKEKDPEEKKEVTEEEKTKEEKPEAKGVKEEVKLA

IC50 [1] [µM] | IC50 [2] [µM] | SMILES
> 10 | 0.01 | Cn1c(=O)n(Cc2ccc(-c3nnc(C(F)F)o3)cn2)c2cc(F)c(-c3cccnc3)cc21 [Compound 165, 1-((5-(5-(difluoromethyl)-1,3,4-oxadiazole-2-yl)pyridine-2-yl)methyl)-6-fluoro-3-methy 1-5-(pyridine-3-yl)-1,3-dihydro-2H-benzo[d]imidazole-2-one]
> 10 | 0.118 | O=c1oc2cc(C3CCN(C4CCC4)CC3)ccc2n1Cc1ccc(-c2nnc(C(F)F)o2)cn1 [Compound 315, 6-(1-cyclobutylpiperidine-4-yl)-3-((5-(5-(difluoromethyl)-1,3,4-oxadiazole-2-yl)pyridine-2-yl)methyl)benzo[d]oxazole-2(3H)-one]
> 10 | 0.027 | O=c1n(Cc2ccc(-c3nnc(C(F)F)o3)cn2)c2cc(F)c(-c3cccnc3)cc2n1C1CCN(CC(F)(F)F)CC1 [Compound 240, 1-((5-(5-(difluoromethyl)-1,3,4-oxadiazole-2-yl)pyridine-2-yl)methyl)-6-fluoro-5-(pyridine-3-yl)-3-(1-(2,2,2-trifluoroethyl)piperidine-4-yl)-1,3-dihydro-2H-benzo[d]imidazole-2-one]
> 10 | 0.053 | CN1CCC(c2ccc3c(c2)oc(=O)n3Cc2ccc(-c3nnc(C(F)F)o3)cn2)CC1 [Compound 309, 3-((5-(5-(difluoromethyl)-1,3,4-oxadiazole-2-yl)pyridine-2-yl)methyl)-6-(1-methylpiperidine-4-yl)benzo[d]oxazole-2(3H)-one]
> 10 | 0.21 | O=c1n(Cc2ccc(-c3nnc(C(F)F)o3)cc2)c2ccccc2n1C1CC2(COC2)C1 [Compound 29, 1-(4-(5-(difluoromethyl)-1,3,4-oxadiazole-2-yl)benzyl)-3-(2-oxaspiro[3.3]heptane-6-yl)-1,3-dihydro-2H-benzo[d]imidazole-2-one]
> 10 | 0.444 | COCCN1Cc2ccccc2N(Cc2ccc(-c3nnc(C(F)F)o3)cc2)C1=O [Compound 30, 1-(4-(5-(difluoromethyl)-1,3,4-oxadiazole-2-yl)benzyl)-3-(2-methoxyethyl)-3,4-dihydro quinazoline-2(1H)-one]
> 10 | 0.052 | O=c1oc2cc(-c3ccnc(N4CCN(C5COC5)CC4)c3)c(F)cc2n1Cc1ccc(-c2nnc(C(F)F)o2)cn1 [Compound 366, 3-((5-(5-(difluoromethyl)-1,3,4-oxadiazole-2-yl)pyridine-2-yl)methyl)-5-fluoro-6-(2-(4-(oxetan-3-yl)piperazine-1-yl)pyridine-4-yl)benzo[d]oxazole-2(3H)-one]
> 10 | 0.105 | CS(=O)(=O)N1CCC(n2c(=O)n(Cc3ccc(-c4nnc(C(F)F)o4)cn3)c3ncccc32)CC1 [Compound 203, 3-((5-(5-(difluoromethyl)-1,3,4-oxadiazole-2-yl)pyridine-2-yl)methyl)-1-(1-(methylsulfonyl)piperidine-4-yl)-1,3-dihydro-2H-imidazo[4,5-b]pyridine-2-one]
> 10 | 0.014 | CN1CCC(n2c(=O)n(Cc3ccc(-c4nnc(C(F)F)o4)cn3)c3cc(Cl)ccc32)CC1 [Compound 213, 5-chloro-3-((5-(5-(difluoromethyl)-1,3,4-oxadiazole-2-yl)pyridine-2-yl)methyl)-1-(1-methylpiperidine-4-yl)-1,3-dihydro-2H-benzo[d]imidazole-2-one]
> 10 | 0.092 | CN1CCC(n2c(=O)n(Cc3ccc(-c4nnc(C(F)F)o4)cc3F)c3ccc(-c4ccccc4F)cc32)CC1 [Compound 160, 1-(4-(5-(difluoromethyl)-1,3,4-oxadiazole-2-yl)-2-fluorobenzyl)-5-(2-fluorophenyl)-3-(1-methylpiperidine-4-yl)-1,3-dihydro-2H-benzo[d]imidazole-2-one]
> 10 | 0.239 | O=c1n(Cc2ccc(-c3nnc(C(F)F)o3)cc2F)c2ccccc2n1C1CCN(C2COC2)CC1 [Compound 16, 1-(4-(5-(difluoromethyl)-1,3,4-oxadiazole-2-yl)-2-fluorobenzyl)-3-(1-(oxetan-3-yl)piperidine-4-yl)-1,3-dihydro-2H-benzo[d]imidazole-2-one]
> 10 | 0.032 | Cn1ccc2cc(-c3cc4c(cc3F)n(Cc3ccc(-c5nnc(C(F)F)o5)cn3)c(=O)n4C)ccc21 [Compound 227, 1-((5-(5-(difluoromethyl)-1,3,4-oxadiazole-2-yl)pyridine-2-yl)methyl)-6-fluoro-3-methy 1-5-(1-methyl-1H-indole-5-yl)-1,3-dihydro-2H-benzo[d]imidazole-2-one]
> 10 | 0.01 | O=c1n(Cc2ccc(-c3nnc(C(F)F)o3)cn2)c2cc(F)c(-c3cccc4[nH]ccc34)cc2n1[C@@H]1CCN(C2COC2)C1 [Compound 288, (R)-1-((5-(5-(difluoromethyl)-1,3,4-oxadiazole-2-yl)pyridine-2-yl)methyl)-6-fluoro-5-(1H-indole-4-yl)-3-(1-(oxetan-3-yl)pyrrolidine-3-yl)-1,3-dihydro-2H-benzo[d]imidazole-2-one]
> 10 | 0.042 | O=c1n(CCN2CCOCC2)c2cc(-c3cccnc3)c(F)cc2n1Cc1ccc(-c2nnc(C(F)F)o2)cn1 [Compound 267, 1-((5-(5-(difluoromethyl)-1,3,4-oxadiazole-2-yl)pyridine-2-yl)methyl)-6-fluoro-3-(2-morpholinoethyl)-5-(pyridine-3-yl)-1,3-dihydro-2H-benzo[d]imidazole-2-one]
> 10 | 0.107 | CCC(F)(F)CN1CCC(n2c(=O)n(Cc3ccc(-c4nnc(C(F)F)o4)cn3)c3cc(Cl)ccc32)CC1 [Compound 233, 5-chloro-1-(1-(2,2-difluorobutyl)piperidine-4-yl)-3-((5-(5-(difluoromethyl)-1,3,4-oxadiazole-2-yl)pyridine-2-yl)methyl)-1,3-dihydro-2H-benzo[d]imidazole-2-one]
> 10 | 0.151 | O=c1oc2cc(-c3ccc(N4CCN(CC(F)(F)F)CC4)nc3)c(F)cc2n1Cc1ccc(-c2nnc(C(F)F)o2)cn1 [Compound 351, 3-((5-(5-(difluoromethyl)-1,3,4-oxadiazole-2-yl)pyridine-2-yl)methyl)-5-fluoro-6-(6-(4-(2,2,2-trifluoroethyl)piperazine-1-yl)pyridine-3-yl)benzo[d]oxazole-2(3H)-one]
> 10 | 0.048 | CS(=O)(=O)N1CCC(n2c(=O)n(Cc3ccc(-c4nnc(C(F)F)o4)cn3)c3cc(F)c(F)cc32)CC1 [Compound 193, 1-((5-(5-(difluoromethyl)-1,3,4-oxadiazole-2-yl)pyridine-2-yl)methyl)-5,6-difluoro-3-(1-(methylsulfonyl)piperidine-4-yl)-1,3-dihydro-2H-benzo[d]imidazole-2-one]
> 10 | 0.022 | Cn1c(=O)n(Cc2ccc(-c3nnc(C(F)F)o3)cn2)c2cc(F)c(-c3ccc(CN4CCOCC4)nc3)cc21 [Compound 330, 1-((5-(5-(difluoromethyl)-1,3,4-oxadiazole-2-yl)pyridine-2-yl)methyl)-6-fluoro-3-methy 1-5-(6-(morpholinomethyl)pyridine-3-yl)-1,3-dihydro-2H-benzo[d]imidazole-2-one]

SMILES | IC50 [1] [µM] | IC50 [2] [µM]
O=c1n(Cc2ccc(-c3nnc(C(F)F)o3)cn2)c2cc(F)ccc2n1C1CCN(C2CCCCC2)CC1 [Compound 54, 1-(1-cyclohexylpiperidine-4-yl)-3-((5-(5-(difluoromethyl)-1,3,4-oxadiazole-2-yl)pyridine-2-yl)methyl)-5-fluoro-1,3-dihydro-2H-benzo[d]imidazole-2-one] | > 10 | 0.039
